Laboratory results reported in paper PMC8518382, “Identification of a Bromodomain‐like Region in 15‐Lipoxygenase‐1 Explains Its Nuclear Localization” (Angewandte Chemie (International Ed. in English), 2021).

Target: T1, 12-LOX (Homo sapiens, UniProt P18054)
T1 construct: the endogenous LOXs were captured on an anti‐LOX antibody precoated 96‐well plate; endogenous in cells; host or cells: A549 cell lysate
T1 sequence (P18054 1-663): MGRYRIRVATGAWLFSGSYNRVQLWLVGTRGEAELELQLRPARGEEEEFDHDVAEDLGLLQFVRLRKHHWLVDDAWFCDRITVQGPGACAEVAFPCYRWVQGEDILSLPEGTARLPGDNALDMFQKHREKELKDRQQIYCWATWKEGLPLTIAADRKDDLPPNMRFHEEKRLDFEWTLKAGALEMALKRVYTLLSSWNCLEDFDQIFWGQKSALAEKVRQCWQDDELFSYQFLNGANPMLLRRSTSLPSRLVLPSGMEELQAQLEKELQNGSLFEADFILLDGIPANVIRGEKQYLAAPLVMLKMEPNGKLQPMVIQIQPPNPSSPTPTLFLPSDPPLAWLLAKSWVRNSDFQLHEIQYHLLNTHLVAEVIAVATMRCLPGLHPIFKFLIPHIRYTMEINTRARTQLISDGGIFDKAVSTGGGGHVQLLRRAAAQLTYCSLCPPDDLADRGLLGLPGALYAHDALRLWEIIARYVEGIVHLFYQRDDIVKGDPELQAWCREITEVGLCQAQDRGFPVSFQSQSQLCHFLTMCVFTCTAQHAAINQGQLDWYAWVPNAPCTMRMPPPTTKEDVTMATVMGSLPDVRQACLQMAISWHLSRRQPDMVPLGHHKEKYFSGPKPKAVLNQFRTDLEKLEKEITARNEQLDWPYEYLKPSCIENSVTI
Assay: Sandwich ELISA of Labelox B biotinylation in A549 cell lysate, 12-LOX capture
Format: biochemical
Conditions: HRP-streptavidin detection, read-out: EC50 of labeling
Experimental: Labelox B efficiently labels endogenous LOXs. Lipoxygenase labeling by Labelox B was investigated using cell‐based assays. As a first step, labeling efficiency was estimated in intact RAW 264.7 macrophage cells that were treated with Labelox B in concentrations ranging between 1 μM and 100 μM with incubation times between 0.5 h and 6 h. […] As a next step, a sandwich ELISA assay was established in order to find proof that probe Labelox B is indeed labeling proteins with lipoxygenase enzyme activity. Towards this aim, A549 cell lysates were treated with sub‐micromolar to micromolar concentrations of Labelox B. Subsequently, the endogenous LOXs were captured on an anti‐LOX antibody precoated 96‐well plate followed by detection of Labelox B mediated biotinylation using HRP‐conjugated streptavidin. […] Furthermore, probe Labelox B enabled visualization of localized LOX activity in living cells (Figure 2 c). […] The fluorescence intensity increased with increasing doses of Labelox B and labeling was observed throughout the cells in the cytoplasm and the nucleus of A549.
Figure 2 Labelox B labels endogenous LOXs in a dose‐ and time‐dependent manner. a, b) Western blot analysis of Labelox B labeled LOXs in intact RAW 264.7 for indicated doses and time points. […] The pictures were captured by a Leica DM4000b fluorescence microscope.

CCCCCC#CCC#CCOC(=O)CCCC[C@@H]1SC[C@@H]2NC(=O)N[C@@H]21 [Labelox B (3)]
EC50: ~3.5 µM
